Test results from US12064502B2, “Peptide exhibiting wrinkle-improving activity and uses thereof” (CAREGEN CO., LTD., priority 2017, dated 2024).
“And” between values parts separate entries of the source, which are not always exact repeats. Identical values can stand only once.

Assays:
[1] = system: Mouse fibroblast NIH3T3; test: Promotion of proliferation of fibroblasts (MTT assay); format: cell-based; conditions: NIH3T3, 3 days; for Fibroblast proliferation (%): MTT, control = 100; for Fibroblast proliferation (result in words): 10 μM or 50 μM
Procedure: Mouse fibroblast NIH3T3 was seeded in a 96-well plate at a density of 5×10^3 cells/well, and then cultured overnight. Subsequently, the media were changed to 0.05% serum-containing media. Then, treatment with the positive control, i.e., 100 nM bFGF, and 10 μM or 50 μM of the peptide consisting of an amino acid sequence of SEQ ID NO: 1, 2, 3, or 4 were performed and cultured for 3 days. Then, 4 mg/mL MTT solution treatment was performed, and the reaction was carried out for 4 hours. Then, the resulting formazan was dissolved by treatment with dimethyl sulfoxide (hereinafter referred to as “DMSO”), and the absorbance at 560 nm was measured using a microplate reader.

[2] = system: Human keratinocyte HaCaT; test: Promotion of proliferation of keratinocytes (MTT assay); format: cell-based; conditions: 3 days, control = 100
Procedure: Human keratinocyte HaCaT was seeded in a 6-well plate at a density of 3×10^5 cells/well, and then cultured overnight. Subsequently, the media were changed to 0.05% serum-containing media. Then, treatment with the positive control, i.e., 10 nM EGF, and 10 μM or 50 μM of the peptide consisting of an amino acid sequence of SEQ ID NO: 1, 2, 3, or 4 were performed and cultured for 3 days. Then, 4 mg/mL MTT solution treatment was performed, and the reaction was carried out for 4 hours. Then, the resulting formazan was dissolved by treatment with dimethyl sulfoxide (hereinafter referred to as “DMSO”), and the absorbance at 560 nm was measured using a microplate reader.

[3] = system: MAPK (ERK, p38, and JNK) and AKT; test: Phosphorylation level of MAPK and AKT in fibroblasts (western blotting); format: cell-based, mouse; conditions: 10 μM or 50 μM, NIH3T3, 30 minutes
Procedure: Mouse fibroblast NIH3T3 was seeded in a 6-well plate at a density of 5×10^3 cells/well, and then cultured overnight. Subsequently, the media were changed to 0.05% FBS-containing media. Then, treatment with the positive control, i.e., 100 nM bFGF, and 10 μM or 50 μM of the peptide consisting of an amino acid sequence of SEQ ID NO: 1, 2, 3, or 4 were performed and cultured for 30 minutes. Then, the cells were collected to prepare cell lysate. Then, western blotting was performed using P-MAPK (p-Erk, p-JNK, p-p38) and p-Akt or actin antibody (Santacruz Biotechnology, USA).

[4] = system: ERK and p38; test: Phosphorylation level of MAPK and AKT in keratinocytes (western blotting); format: cell-based, human; conditions: 10 μM or 50 μM, HaCaT, 30 minutes
Procedure: Human keratinocyte HaCaT was seeded in a 6-well plate at a density of 3×10^5 cells/well, and then cultured overnight. Subsequently, the media were changed to 0.05% FBS-containing media. Then, treatment with the positive control, i.e., 10 nM EGF, and 10 μM or 50 μM of the peptide consisting of an amino acid sequence of SEQ ID NO: 1 or 2 were performed and cultured for 30 minutes. Then, the cells were collected to prepare cell lysate. Then, western blotting was performed using P-MAPK (p-Erk, p-JNK, p-p38) and p-Akt antibody (Santacruz Biotechnology, USA).

[5] = system: collagen1a, fibronectin, elastin mRNA; test: RT-PCR of collagen1a, fibronectin and elastin in fibroblasts; format: cell-based, mouse; conditions: 10 μM or 50 μM, NIH3T3, 24 hours
Procedure: Mouse fibroblast NIH3T3 was seeded in a 6-well plate at a density of 5×10^3 cells/well, and then cultured overnight. Subsequently, the media were changed to 0.05% FBS-containing media, followed by culturing for 4 hours. Then, treatment with the positive control, i.e., 100 nM IGF-1, and 10 μM or 50 μM of the peptide consisting of an amino acid sequence of SEQ ID NO: 1, 2, 3, or 4 were performed and cultured for 24 hours. Then, the cells were cultured and collected to isolate RNA. cDNA was synthesized using a cDNA synthesis kit (Intron, Korea) after quantification of RNA, and PCR was carried out using primers of each of PCR premix (Intron, Korea) and collagen1a, fibronectin, elastin, GAPDH in Table 4. Then, the cells were run on 5% agarose gel, and degrees of mRNA expression of the growth factors were compared in each peptide treatment condition.

[6] = system: AQP3; test: RT-PCR of AQP3 (Aquaporin3) and SIRT1 in keratinocytes; format: cell-based, human; conditions: 10 μM or 50 μM, HaCaT, 24 hours
Procedure: Human keratinocyte HaCaT was seeded in a 6-well plate at a density of 3×10^5 cells/well, and then cultured overnight. Subsequently, the media were changed to 0.05% FBS-containing media, followed by culturing for 4 hours. Then, treatment with the positive control, i.e., 100 nM EGF, and 10 μM or 50 μM of the peptide consisting of an amino acid sequence of SEQ ID NO: 1 or 2 were performed and cultured for 24 hours. Then, the cells were cultured and collected to isolate RNA. cDNA was synthesized using a cDNA synthesis kit (Intron, Korea) after quantification of RNA, and PCR was carried out using primers of each of PCR premix (Intron, Korea) and AQP3, SIRT1, and GAPDH in Table 5. Then, the cells were run on 5% agarose gel, and degrees of mRNA expression of the growth factors were compared in each peptide treatment condition.

[7] = system: collagen 1a, fibronectin, and elastin; test: Expression amount of collagen1a, fibronectin and elastin protein (antibody staining, fluorescence microscope); format: cell-based, mouse; conditions: NIH3T3, 24 hours
Procedure: Mouse fibroblast NIH3T3 was seeded in a 6-well plate at a density of 5×10^3 cells/well, and then cultured overnight. Subsequently, the media were changed to 0.05% serum-free media. Then, treatment with the positive control, i.e., 100 nM EGF, and the peptide consisting of an amino acid sequence of SEQ ID NO: 1 or 2 were performed and cultured for 24 hours. Then, the cells were fixed for 30 minutes using 4% paraformaldehyde. Then, after washing 3 times, the cells were reacted with 0.5% Triton X-100 for 15 minutes and washed again 3 times. Then, 3% BSA was blocked for 1 hour and the primary antibody (1:100) for collagen 1a, fibronectin, and elastin was reacted overnight at 4° C. Then, the secondary antibody (1:500) was reacted at room temperature for 2 hours, stained with DAPI staining, and observation was made with a fluorescence microscope.

[8] = system: Procollagen1a; test: Procollagen1a ELISA; format: cell-based, mouse; conditions: for Pro-collagen1a protein expression (result in words): NIH3T3, 72 hours, ELISA; for Procollagen1a expression (%): NIH3T3 medium, 72 hours, control = 100
Procedure: Mouse fibroblast NIH3T3 was seeded in a 6-well plate at a density of 5×10^3 cells/well, and then cultured overnight. Subsequently, the media were changed to 0.05% FBS-containing media, followed by culturing for 4 hours. Then, treatment with the positive control, i.e., 100 nM IGF-1, and the peptide consisting of an amino acid sequence of SEQ ID NO: 1, 2, 3, or 4 were performed and cultured for 72 hours. Then, the media were collected. The amount in the medium was measured using Procollagen1a ELISA kit (Usbiological Lifescience, USA).

[9] = system: HA; test: HA ELISA; format: cell-based, human; conditions: 72 hours; for HA expression: HaCaT medium, control 251
Procedure: Human keratinocyte HaCaT was seeded in a 6-well plate at a density of 3×10^5 cells/well, and then cultured overnight. The media were changed to 0.05% FBS-containing media, followed by culturing for 4 hours. Then, treatment with the positive control, i.e., 100 nM IGF-1, and the peptide consisting of an amino acid sequence of SEQ ID NO: 2 were performed and cultured for 72 hours. Then, the media were collected. An HA ELISA kit (Echelon, USA) was used to measure an amount thereof.

## bFGF: positive control, 100 nM bFGF, in the fibroblast tests [reference compound]
[1]; positive control 100 nM
  Fibroblast proliferation (%): 386% and 279% and 400%

## ILGRWCG [SEQ ID NO: 2]
[1]
  Fibroblast proliferation (result in words): promote fibroblast proliferation
[1]; peptide 10 μM
  Fibroblast proliferation (%): 188%
[1]; peptide 50 μM
  Fibroblast proliferation (%): 253%
[2]; peptide 10 μM
  Keratinocyte proliferation (%): 111%
[2]; peptide 50 μM
  Keratinocyte proliferation (%): 119%
[3]
  Phosphorylation of MAPK and AKT in fibroblasts (result in words): activation of MAPK (ERK, p38, and JNK) and AKT
[4]
  Phosphorylation of MAPK in keratinocytes (result in words): activation of ERK and p38
[5]
  mRNA expression of collagen, fibronectin and elastin (result in words): increasing expression of mRNA of collagen, fibronectin, and elastin
[6]
  AQP3 expression (result in words): increasing AQP3 expression
[7]
  Protein expression of collagen, fibronectin and elastin (result in words): increasing expression of proteins of collagen, fibronectin, and elastin
[8]
  Pro-collagen1a protein expression (result in words): expression of pro-collagen1a protein was found to increase
[8]; peptide 10 μM
  Procollagen1a expression (%): 145%
[8]; peptide 50 μM
  Procollagen1a expression (%): 146%
[9]; HaCaT, ELISA
  HA expression (result in words): increasing HA expression
[9]; peptide 10 μM
  HA expression: 286 ng/mL
[9]; peptide 50 μM
  HA expression: 292 ng/mL

## EGF: positive control, 10 nM EGF, in the keratinocyte tests [reference compound]
[2]; positive control 10 nM
  Keratinocyte proliferation (%): 187% and 142% and 152%

## KWGGGRY [SEQ ID NO: 1]
[1]
  Fibroblast proliferation (result in words): promote fibroblast proliferation
[1]; peptide 10 μM
  Fibroblast proliferation (%): 170%
[1]; peptide 50 μM
  Fibroblast proliferation (%): 194%
[2]; peptide 10 μM
  Keratinocyte proliferation (%): 120%
[2]; peptide 50 μM
  Keratinocyte proliferation (%): 136%
[3]
  Phosphorylation of MAPK and AKT in fibroblasts (result in words): activation of MAPK (ERK, p38, and JNK) and AKT
[4]
  Phosphorylation of MAPK in keratinocytes (result in words): activation of ERK and p38
[5]
  mRNA expression of collagen, fibronectin and elastin (result in words): increasing expression of mRNA of collagen, fibronectin, and elastin
[6]
  AQP3 expression (result in words): increasing AQP3 expression
[7]
  Protein expression of collagen, fibronectin and elastin (result in words): increasing expression of proteins of collagen, fibronectin, and elastin
[8]
  Pro-collagen1a protein expression (result in words): expression of pro-collagen1a protein was found to increase
[8]; peptide 10 μM
  Procollagen1a expression (%): 98%
[8]; peptide 50 μM
  Procollagen1a expression (%): 157%

## IGF-1: positive control, 100 nM IGF-1, in the ELISA and RT-PCR tests [reference compound]
[8]; positive control 100 nM
  Procollagen1a expression (%): 113% and 140%
[9]; positive control 100 nM
  HA expression: 280 ng/mL

## GPVH [SEQ ID NO: 3]
[1]
  Fibroblast proliferation (result in words): promote fibroblast proliferation
[1]; peptide 10 μM
  Fibroblast proliferation (%): 194%
[1]; peptide 50 μM
  Fibroblast proliferation (%): 261%
[2]; peptide 10 μM
  Keratinocyte proliferation (%): 183%
[2]; peptide 50 μM
  Keratinocyte proliferation (%): 197%
[3]
  Phosphorylation of MAPK and AKT in fibroblasts (result in words): activation of MAPK (ERK, p38, and JNK) and AKT
[5]
  mRNA expression of collagen, fibronectin and elastin (result in words): increasing expression of mRNA of collagen, fibronectin, and elastin
[8]
  Pro-collagen1a protein expression (result in words): expression of pro-collagen1a protein was found to increase
[8]; peptide 10 μM
  Procollagen1a expression (%): 138%
[8]; peptide 50 μM
  Procollagen1a expression (%): 143%

## EDEFKPPAAGR [SEQ ID NO: 4]
[1]
  Fibroblast proliferation (result in words): promote fibroblast proliferation
[1]; peptide 10 μM
  Fibroblast proliferation (%): 114%
[1]; peptide 50 μM
  Fibroblast proliferation (%): 193%
[2]; peptide 10 μM
  Keratinocyte proliferation (%): 113%
[2]; peptide 50 μM
  Keratinocyte proliferation (%): 142%
[3]
  Phosphorylation of MAPK and AKT in fibroblasts (result in words): activation of MAPK (ERK, p38, and JNK) and AKT
[5]
  mRNA expression of collagen, fibronectin and elastin (result in words): increasing expression of mRNA of collagen, fibronectin, and elastin
[8]
  Pro-collagen1a protein expression (result in words): expression of pro-collagen1a protein was found to increase
[8]; peptide 10 μM
  Procollagen1a expression (%): 122%
[8]; peptide 50 μM
  Procollagen1a expression (%): 141%
